Measured values from patent publication US20180028617A1, “METHODS OF TREATING MILD BRAIN INJURY AND POST-TRAUMATIC STRESS DISORDER” (The Regents of the University of California, priority 2015, published 2018).

Columns and labels:
[1] = test system: neutrophil oxidative burst in leukocytes isolated from brain tissue; assay: Oxidative burst (ROS, DHR 123 fluorescence by flow cytometry) in leukocytes isolated from brain tissue after mild brain injury by controlled cortical impact; assay type: in vivo, C57/B6 mice; conditions: for Oxidative burst in inflammatory cells following mBI (flow cytometry peak shift, FIG. 2): subcutaneous ghrelin, compared to untreated mBI, n=3 animals in each group
Method: FIG. 1 depicts principle of assaying oxidative burst within inflammatory cells. Dihydrorhodamine 123 (DHR 123) diffuses across the cell membrane. When it encounters reactive oxygen species (ROS), DHR 123 is oxidized and fluoresces green. The fluorescence is then measured and presented as arbitrary fluorescence unit (AFU), wherein higher intensity means greater oxidative burst and, therefore greater concentration of amount of ROS (See Chen, et al., Measurement of oxidative burst in neutrophils,” Methods Mol Biol., 844: 115-124 (2012); which is incorporated herein by reference in its entirety).
Ghrelin administration reduces oxidative burst in inflammatory cells following mBI. Since no well-accepted animal model exists for concussions, a very small cerebral lesion that closely mimics mBI is used as a model of mBI. C57/B6 mice anesthetized with 5% isoflurane in oxygen (1.7 L/min) are given 0.3 mg/kg buprenorphine subcutaneously for analgesia prior to infliction of the mild brain injury. Anesthesia is assessed by paw pinch reflex. After creating a burr hole through the dura with a dental drill, a lesion using a controlled cortical impactor (CCI) is used to create injury 1 mm lateral and posterior to the bregma (5.0 mm/sec at a depth of 1.0 mm).
Animals are separated into three treatment groups: 1) Sham, 2) mBI, and 3) mBI plus ghrelin. A variety of doses can be tested depending upon the particular ghrelin. Ghrelin can be obtained for example from Phoenix Pharmaceuticals, Inc. (Burlingame, Calif.). For example, 1 to 50 μg at one or more time points. As one example, treatment with subcutaneous ghrelin: 1 dose of 10 μg following mBI and additional dose 10 μg 1 hour after. Brain tissue is harvested at 2-8 hours, preferably about 6 hours post-injury. […] The fluorescence is then measured and presented as arbitrary fluorescence unit (AFU), wherein higher intensity means greater oxidative burst and, therefore greater concentration or amount of ROS. […] Oxidative burst, which is a marker for ROS, can be measured by flow cytometry (e.g., FL1 channel with 488-nm laser).

[2] = test system: blood brain barrier (BBB) vascular permeability; Aquaporin 4 (AQP-4); conditions: cited from earlier work

For “Gly-Ser-Ser-Phe-Leu-Ser-Pro-Glu-His-Gln-Arg-Val-Gln-Gln-Arg-Lys-Glu-Ser-Lys-Lys-Pro-Pro-Ala-Lys-Leu-Gln-Pro-Arg (GSSFLSPEHQRVQQRKESKKPPAKLQPR; printed: Gly-Ser-Ser-Phe-Leu-Ser-Pro-Glu-His-Gln-Arg-Val-Gln-Gln-Arg-Lys-Glu-Ser-Lys-Lys-Pro-Pro-Ala-Lys-Leu-Gln-Pro-Arg) [ghrelin, 28-amino acid peptide neuroendocrine hormone, endogenous ligand for growth hormone secretagogue receptor; can include octanoyl acylation; obtainable from Phoenix Pharmaceuticals]”, the “Oxidative burst of ipsilateral whole brain following mild BI (mean fluorescence intensity)” value ([1]; mild BI + ghrelin (2 doses), subcutaneous 10 μg following mBI and 10 μg 1 hour after, vs 7963±2900 mild BI alone and 4624±1858 sham, p-value of 0.048, n=5) was 3257 AFU, the “Oxidative burst in inflammatory cells following mBI (flow cytometry peak shift, FIG. 2)” value [1] was “lower oxidative burst” and the “Oxidative burst in inflammatory cells following mBI (flow cytometry peak shift, FIG. 2)” value ([1]; listed as Ghrelin) was “reduced the oxidative burst”. For the same substance, the “Post-TBI up-regulation of Aquaporin 4 (AQP-4)” value [2] was “prevents post-TBI up-regulation of Aquaporin 4”.
